# Results taken from publication PMC7235042, “Venturicidin A, A Membrane-active Natural Product Inhibitor of ATP synthase Potentiates Aminoglycoside Antibiotics” (Scientific Reports, 2020).
# Target: T1, AAC(6′)-Ie-APH(2′′)-Ia (Staphylococcus aureus, UniProt P0A0C1)
# T1 construct: gene aacA-aphD; purified bifunctional enzyme (AAC and APH domains)
# Assay: absorbance at […] nm, DTNB detection of released CoA-SH
# Format: biochemical
# Settings: AAC activity; co-substrate gentamicin 112 µg/mL
# T1 sequence (P0A0C1 whole entry, the tested form may be a part): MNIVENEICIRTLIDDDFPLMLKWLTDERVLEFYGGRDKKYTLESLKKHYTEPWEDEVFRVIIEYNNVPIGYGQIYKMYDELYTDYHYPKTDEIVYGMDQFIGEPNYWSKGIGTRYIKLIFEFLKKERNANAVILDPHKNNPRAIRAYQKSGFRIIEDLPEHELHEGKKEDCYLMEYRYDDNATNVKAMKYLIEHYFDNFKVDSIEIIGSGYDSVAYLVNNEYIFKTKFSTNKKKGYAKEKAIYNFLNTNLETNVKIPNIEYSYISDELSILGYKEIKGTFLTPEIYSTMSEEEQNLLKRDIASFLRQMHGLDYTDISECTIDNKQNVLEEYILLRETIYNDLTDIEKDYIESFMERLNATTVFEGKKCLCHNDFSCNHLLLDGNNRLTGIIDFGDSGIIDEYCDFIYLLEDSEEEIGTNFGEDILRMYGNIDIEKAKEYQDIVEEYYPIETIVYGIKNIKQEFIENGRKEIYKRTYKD
structure (smiles),measurement,value
CC(=O)SCCNC(=O)CCNC(=O)[C@H](O)C(C)(C)COP(=O)(O)OP(=O)(O)OC[C@H]1O[C@@H](n2cnc3c(N)ncnc32)[C@H](O)[C@@H]1OP(=O)(O)O [acetyl CoA],"absorbance at 412 nm, DTNB detection of released CoA-SH",CoA–SH that is derived from acetyl CoA after antibiotic acetylation
